# Source: ChEMBL document CHEMBL5465560, “Selectivity Literature for EUbOPEN Chemogenomic Library” (2024)
# Experiments:
# [1] = biological target: T1, Bone morphogenetic protein receptor type-2 (Homo sapiens) (UniProt Q13873); experiment: Selectivity interaction (KinomeScan (DiscoverX)) EUB0000092b BMPR2; conditions: at 10 µM
# T1 sequence (whole entry): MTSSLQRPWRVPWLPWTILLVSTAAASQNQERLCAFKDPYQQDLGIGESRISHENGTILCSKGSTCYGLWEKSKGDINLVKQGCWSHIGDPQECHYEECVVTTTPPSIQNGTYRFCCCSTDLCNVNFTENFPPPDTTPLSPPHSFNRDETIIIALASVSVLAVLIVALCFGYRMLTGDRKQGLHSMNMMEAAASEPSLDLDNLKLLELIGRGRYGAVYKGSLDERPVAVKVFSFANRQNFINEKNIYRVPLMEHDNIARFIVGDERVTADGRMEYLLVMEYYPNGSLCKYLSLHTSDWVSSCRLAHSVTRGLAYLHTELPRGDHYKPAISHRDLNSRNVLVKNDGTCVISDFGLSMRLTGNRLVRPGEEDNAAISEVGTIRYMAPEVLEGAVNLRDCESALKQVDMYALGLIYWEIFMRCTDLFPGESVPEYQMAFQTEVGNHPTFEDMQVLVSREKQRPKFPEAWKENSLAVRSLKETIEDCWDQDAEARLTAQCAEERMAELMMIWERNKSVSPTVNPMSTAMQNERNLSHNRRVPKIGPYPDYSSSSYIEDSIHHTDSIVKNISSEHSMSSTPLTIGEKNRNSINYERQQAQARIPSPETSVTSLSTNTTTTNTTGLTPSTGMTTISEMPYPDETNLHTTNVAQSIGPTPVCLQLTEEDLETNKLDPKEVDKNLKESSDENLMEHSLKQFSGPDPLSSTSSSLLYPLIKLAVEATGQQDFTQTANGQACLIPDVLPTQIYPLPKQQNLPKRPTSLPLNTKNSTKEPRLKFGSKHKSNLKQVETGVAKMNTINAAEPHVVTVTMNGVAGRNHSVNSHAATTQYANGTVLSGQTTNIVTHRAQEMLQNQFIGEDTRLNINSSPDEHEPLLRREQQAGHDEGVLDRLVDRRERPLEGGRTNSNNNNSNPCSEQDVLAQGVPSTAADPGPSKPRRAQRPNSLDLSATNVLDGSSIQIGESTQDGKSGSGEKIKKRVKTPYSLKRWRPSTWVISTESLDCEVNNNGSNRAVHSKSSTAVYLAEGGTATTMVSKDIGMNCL
# [2] = biological target: T2, Serine/threonine-protein kinase Nek2 (Homo sapiens) (UniProt P51955); conditions: at 10 µM
# T2 sequence (whole entry): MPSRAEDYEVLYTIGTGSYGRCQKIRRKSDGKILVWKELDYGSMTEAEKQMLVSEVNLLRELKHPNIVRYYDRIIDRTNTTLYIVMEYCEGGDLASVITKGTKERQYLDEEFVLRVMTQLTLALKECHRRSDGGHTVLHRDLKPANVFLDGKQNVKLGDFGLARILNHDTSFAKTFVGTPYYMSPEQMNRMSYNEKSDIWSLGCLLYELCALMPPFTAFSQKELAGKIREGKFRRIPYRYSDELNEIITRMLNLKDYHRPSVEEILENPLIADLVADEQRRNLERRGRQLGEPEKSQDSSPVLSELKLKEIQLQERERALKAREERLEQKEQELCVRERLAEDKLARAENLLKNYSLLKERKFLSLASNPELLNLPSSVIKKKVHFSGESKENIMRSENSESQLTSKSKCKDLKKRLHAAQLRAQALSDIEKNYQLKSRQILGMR
# [3] = biological target: Serine/threonine-protein kinase SMG1 (Homo sapiens) (UniProt Q96Q15); experiment: Selectivity interaction (ActivX KiNativ screen (kinase selectivity in THP-1 cell lysates)) EUB0000639a SMG1; assay type: subcellular; conditions: lysate, at 0.01 µM
# Chain of Serine/threonine-protein kinase SMG1 (Homo sapiens) (Q96Q15 whole entry, the tested form may be a part): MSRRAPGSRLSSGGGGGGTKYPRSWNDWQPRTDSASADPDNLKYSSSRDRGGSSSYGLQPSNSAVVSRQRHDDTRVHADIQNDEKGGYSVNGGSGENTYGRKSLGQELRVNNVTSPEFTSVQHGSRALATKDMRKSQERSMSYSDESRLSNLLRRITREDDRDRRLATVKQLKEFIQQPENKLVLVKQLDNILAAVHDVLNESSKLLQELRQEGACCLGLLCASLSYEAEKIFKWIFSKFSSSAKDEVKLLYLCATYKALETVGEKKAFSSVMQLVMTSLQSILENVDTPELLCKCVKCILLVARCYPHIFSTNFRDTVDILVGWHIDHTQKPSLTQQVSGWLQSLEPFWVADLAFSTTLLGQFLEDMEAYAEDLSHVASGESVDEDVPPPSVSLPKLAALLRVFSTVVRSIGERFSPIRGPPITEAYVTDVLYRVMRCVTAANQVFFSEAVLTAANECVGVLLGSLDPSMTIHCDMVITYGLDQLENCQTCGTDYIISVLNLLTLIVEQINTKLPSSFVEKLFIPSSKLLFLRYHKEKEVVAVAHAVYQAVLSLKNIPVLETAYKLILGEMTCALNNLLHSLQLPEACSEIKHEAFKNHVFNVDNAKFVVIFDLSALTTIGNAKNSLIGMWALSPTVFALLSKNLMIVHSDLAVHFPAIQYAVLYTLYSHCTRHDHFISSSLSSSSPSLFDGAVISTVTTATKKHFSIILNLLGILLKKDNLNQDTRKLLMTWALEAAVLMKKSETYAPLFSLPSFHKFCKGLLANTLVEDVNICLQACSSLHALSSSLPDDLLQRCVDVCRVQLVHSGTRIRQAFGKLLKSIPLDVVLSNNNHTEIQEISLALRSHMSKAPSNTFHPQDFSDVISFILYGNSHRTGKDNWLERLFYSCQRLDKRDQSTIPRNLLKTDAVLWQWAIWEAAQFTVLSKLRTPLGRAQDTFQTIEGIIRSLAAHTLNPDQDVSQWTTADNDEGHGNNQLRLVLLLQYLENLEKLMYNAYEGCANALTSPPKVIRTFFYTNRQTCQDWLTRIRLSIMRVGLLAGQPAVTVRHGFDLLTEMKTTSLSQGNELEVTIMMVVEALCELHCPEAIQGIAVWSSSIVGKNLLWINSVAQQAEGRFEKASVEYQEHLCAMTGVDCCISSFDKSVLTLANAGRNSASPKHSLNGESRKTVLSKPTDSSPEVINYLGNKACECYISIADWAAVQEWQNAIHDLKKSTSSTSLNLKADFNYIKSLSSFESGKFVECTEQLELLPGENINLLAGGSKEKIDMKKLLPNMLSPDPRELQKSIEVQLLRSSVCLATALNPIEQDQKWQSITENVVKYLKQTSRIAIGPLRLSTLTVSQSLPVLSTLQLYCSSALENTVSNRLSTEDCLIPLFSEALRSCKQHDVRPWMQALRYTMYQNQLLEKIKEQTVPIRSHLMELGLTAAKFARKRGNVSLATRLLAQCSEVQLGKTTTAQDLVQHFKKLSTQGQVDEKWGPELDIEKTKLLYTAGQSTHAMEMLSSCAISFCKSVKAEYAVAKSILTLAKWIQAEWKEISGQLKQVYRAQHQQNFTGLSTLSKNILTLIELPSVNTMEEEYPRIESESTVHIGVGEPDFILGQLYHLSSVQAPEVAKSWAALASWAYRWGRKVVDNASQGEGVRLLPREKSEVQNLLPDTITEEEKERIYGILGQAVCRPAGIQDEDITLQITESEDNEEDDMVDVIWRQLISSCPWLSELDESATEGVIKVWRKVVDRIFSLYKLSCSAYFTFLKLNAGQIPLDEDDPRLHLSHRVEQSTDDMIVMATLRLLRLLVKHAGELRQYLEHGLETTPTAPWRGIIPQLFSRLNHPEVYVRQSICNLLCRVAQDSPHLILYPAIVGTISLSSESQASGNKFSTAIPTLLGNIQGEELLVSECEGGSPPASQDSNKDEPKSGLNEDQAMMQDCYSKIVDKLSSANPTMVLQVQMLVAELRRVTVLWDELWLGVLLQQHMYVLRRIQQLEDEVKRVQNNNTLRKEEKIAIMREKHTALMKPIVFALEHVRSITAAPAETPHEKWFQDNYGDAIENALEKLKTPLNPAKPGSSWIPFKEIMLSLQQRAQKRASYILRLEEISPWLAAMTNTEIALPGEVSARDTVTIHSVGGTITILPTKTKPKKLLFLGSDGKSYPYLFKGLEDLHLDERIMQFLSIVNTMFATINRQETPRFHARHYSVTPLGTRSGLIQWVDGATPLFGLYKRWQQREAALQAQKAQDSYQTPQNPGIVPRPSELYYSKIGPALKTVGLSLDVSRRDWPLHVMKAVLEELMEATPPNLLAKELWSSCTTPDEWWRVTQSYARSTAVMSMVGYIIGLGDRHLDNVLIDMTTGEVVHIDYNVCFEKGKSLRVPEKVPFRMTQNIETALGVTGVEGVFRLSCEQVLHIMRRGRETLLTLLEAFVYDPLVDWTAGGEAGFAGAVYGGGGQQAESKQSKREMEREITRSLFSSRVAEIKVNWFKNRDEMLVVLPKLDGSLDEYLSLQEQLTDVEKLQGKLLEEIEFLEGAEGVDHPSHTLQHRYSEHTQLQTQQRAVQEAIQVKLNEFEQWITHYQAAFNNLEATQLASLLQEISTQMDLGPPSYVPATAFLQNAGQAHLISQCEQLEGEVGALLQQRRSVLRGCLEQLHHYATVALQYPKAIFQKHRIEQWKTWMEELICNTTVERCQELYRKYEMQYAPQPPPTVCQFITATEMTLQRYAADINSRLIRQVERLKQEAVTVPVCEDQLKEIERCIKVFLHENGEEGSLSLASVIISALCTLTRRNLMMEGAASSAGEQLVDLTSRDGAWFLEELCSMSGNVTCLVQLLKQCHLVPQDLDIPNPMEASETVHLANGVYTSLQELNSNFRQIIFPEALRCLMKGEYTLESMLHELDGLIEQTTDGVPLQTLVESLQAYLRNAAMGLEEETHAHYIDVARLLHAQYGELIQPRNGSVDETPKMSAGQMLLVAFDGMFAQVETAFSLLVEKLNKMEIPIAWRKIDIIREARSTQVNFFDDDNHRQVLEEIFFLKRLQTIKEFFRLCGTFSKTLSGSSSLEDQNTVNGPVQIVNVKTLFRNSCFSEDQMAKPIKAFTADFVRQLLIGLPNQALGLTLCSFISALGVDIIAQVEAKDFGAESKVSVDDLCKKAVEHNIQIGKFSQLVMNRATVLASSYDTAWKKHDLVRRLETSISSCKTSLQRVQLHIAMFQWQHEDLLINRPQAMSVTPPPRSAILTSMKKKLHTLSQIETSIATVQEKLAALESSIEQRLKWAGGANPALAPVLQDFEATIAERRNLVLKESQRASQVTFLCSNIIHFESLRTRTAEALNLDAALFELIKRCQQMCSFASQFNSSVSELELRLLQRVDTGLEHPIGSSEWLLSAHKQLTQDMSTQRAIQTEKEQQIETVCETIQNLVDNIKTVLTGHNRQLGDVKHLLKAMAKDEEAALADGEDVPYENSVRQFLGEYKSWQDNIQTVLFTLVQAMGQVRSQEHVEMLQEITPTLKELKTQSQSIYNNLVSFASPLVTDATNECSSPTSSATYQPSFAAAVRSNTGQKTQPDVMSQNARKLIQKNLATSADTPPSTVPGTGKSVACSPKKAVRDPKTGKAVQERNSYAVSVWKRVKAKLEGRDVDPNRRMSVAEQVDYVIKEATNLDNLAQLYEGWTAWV
# [4] = biological target: T3, Ankyrin repeat and protein kinase domain-containing protein 1 (Homo sapiens) (UniProt Q8NFD2); experiment: Selectivity interaction (KinomeScan (DiscoverX)) EUB0000607a ANKK1; conditions: at 10 µM
# T3 sequence (whole entry): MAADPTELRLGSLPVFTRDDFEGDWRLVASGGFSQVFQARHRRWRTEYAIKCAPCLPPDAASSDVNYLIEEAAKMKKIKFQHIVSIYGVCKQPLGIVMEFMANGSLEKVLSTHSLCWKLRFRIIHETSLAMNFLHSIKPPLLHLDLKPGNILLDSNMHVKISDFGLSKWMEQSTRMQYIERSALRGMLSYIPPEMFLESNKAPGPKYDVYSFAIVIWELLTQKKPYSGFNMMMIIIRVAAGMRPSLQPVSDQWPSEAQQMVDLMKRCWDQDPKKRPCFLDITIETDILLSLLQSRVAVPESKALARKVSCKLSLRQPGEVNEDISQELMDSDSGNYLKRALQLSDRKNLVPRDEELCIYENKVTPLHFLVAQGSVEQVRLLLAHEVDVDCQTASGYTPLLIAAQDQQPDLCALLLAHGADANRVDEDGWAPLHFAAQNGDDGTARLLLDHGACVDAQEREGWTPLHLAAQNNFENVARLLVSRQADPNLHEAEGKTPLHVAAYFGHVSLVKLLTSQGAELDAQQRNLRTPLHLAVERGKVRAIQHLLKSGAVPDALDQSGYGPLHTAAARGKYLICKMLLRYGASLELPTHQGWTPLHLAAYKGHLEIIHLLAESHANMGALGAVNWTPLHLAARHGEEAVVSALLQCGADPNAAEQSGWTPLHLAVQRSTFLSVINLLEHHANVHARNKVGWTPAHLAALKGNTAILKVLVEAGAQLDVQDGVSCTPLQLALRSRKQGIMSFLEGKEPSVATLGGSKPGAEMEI
# [5] = biological target: T4, Aurora kinase A (Homo sapiens) (UniProt O14965); experiment: Selectivity interaction (Kinase panel (Carna Biosciences)) EUB0001542aTs STK6; conditions: at 1 µM
# T4 sequence (whole entry): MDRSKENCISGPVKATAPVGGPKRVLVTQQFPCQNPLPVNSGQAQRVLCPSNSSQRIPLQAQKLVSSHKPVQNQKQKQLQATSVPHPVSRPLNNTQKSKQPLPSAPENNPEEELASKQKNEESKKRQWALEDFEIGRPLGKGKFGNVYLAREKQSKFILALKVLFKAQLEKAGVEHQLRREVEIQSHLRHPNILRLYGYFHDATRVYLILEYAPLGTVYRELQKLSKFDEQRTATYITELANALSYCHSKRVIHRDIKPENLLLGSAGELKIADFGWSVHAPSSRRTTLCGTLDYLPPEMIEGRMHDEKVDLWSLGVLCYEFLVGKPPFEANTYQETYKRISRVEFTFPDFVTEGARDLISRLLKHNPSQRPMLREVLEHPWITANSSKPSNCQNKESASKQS
compound,measurement,setting,value
CCC(=O)N1CCN(c2ccc(-n3c(=O)ccc4cnc5ccc(-c6cnc7ccccc7c6)cc5c43)cc2C(F)(F)F)CC1,% of control,[1],85%
Cc1cc([C@@H](C)Nc2ccccc2C(=O)O)c2nc(N3CCOCC3)cc(=O)n2c1 [AZD-6482],% of control,[2],71%
CC[C@@H]1[C@H](F)C(=O)N[C@@H]1COc1nccc2cc(C(N)=O)c(OC)cc12 [ZIMLOVISERTIB],% of inhibition,[3],-2.1%
CNC(=O)Nc1ccc(-c2nc(N3CC4CCC(C3)O4)c3cnn(C4CCC5(CC4)OCCO5)c3n2)cc1,% of control,[4],77%
Cn1cc(Nc2nccc(N3CC4CCC(C3)N4C(=O)[C@@H]3CC3(F)F)n2)cn1,% of inhibition,[5],62%
